# Results: PubChem BioAssay (NCI)
#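 96-well plates; 48 h exposure; 5 concentrations. Endpoints by linear interpolation between flanking doses. Not reached: highest tested concentration assigned. The concentration for 50% growth inhibition is given as GI50. At the TGI there is no net growth.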
# System: P388/ADR leukemia
# Assay: NCI tumour cell line growth inhibition, 48 h
compound,measurement,value
CC(=O)[C@H]1CCC2[C@@H]3CC=C4C(O)C(OS(=O)(=O)O)CC[C@]4(C)C3CC[C@@]21C (stereo not given in full),TGI,> 100 µM
CCOC(=O)C[n+]1ccc2c([nH]c3cc(OC)ccc32)c1C,TGI,> 100 µM
NC1CCCCC1N.O=S(=O)([O-])CCCN1CCN(CCO)CC1.O=S(=O)([O-])CCCN1CCN(CCO)CC1.[Pt+4],GI50,2.56 µM
same,TGI,> 47.7 µM
CC1(C)N=C(N)N=C(N)N1c1ccc(OCCCOc2ccccc2)c(Cl)c1,TGI,> 100 µM
